Test results published in patent publication US20150198597A1, “Method for monitoring PARP activity in cells by PARP activation” (Stichting Het Nederlands Kanker Instituut, priority 2012, published 2015).

Test system: PARP
Conditions: PBMCs; H2O2 at 0, 12.5, 50, 200 and 800 μM; treated and maintained on ice (0-4° Celsius) for 60 minutes; FIG. 3B
Method: Cells were treated on ice (at 0-4° Celsius) and cells were maintained on ice (at 0-4° Celsius) for 60 minutes. Cells were immediately lysed thereafter and PAR levels were measured by using the Trevigen® PARP Pharmacodynamic assay II. The PAR levels (y-axis) are plotted against the H2O2 concentration (x-axis).
The assay was used to quantify the amount of PAR in peripheral blood mononuclear cells (PBMC).
Peripheral Blood Mononuclear Cells (PBMCs) were prepared by drawing 8 ml blood from a subject in a BD vacutainer CPT-citrate tube (RT) at the clinic. Invert the tubes three times to mix the anti-coagulant (1 ml) with the blood and keep the tube at room temperature (RT). Centrifuge for 25 minutes at 1500×g at RT, and invert the tubes three times. Pour the upper layer into a 50 ml Falcon tube on ice and incubate on ice for 5 minutes. Adjust the total volume to 50 ml with ice-cold PBS and centrifuge 10 minutes at 330×g at 4° Celsius. Decant the supernatant and place the tube inverted on filter paper for 2 seconds. Re-suspend the pellet in 10 ml ice-cold PBS. Count the PBMCs with a hema-cytometer and centrifuge 10 minutes at 330×g at 4° Celsius. Re-suspend the pellet at 2×10exp6 PBMC/500 μl in PBS and transfer to a pre-chilled 2.0 ml tube on ice.
For example, cells are suspended at 2×10E6 PBMC/500 μl culture PBS. […]

## OO [H2O2, hydrogen peroxide]
  PAR levels: Higher PAR levels were found with increasing H2O2 treatment concentration
